{"source": "patent US20250186486A1", "about": "“POTENTIATION OF DURABLE ANTITUMOR IMMUNITY BY MULTIFACTORIAL IMMUNE MODULATION” (BAYLOR COLLEGE OF MEDICINE, priority 2022, published 2025)", "key": {"[1]": {"system": "4T-1 TNBC cells", "assay": "Subcutaneous 4T-1 TNBC tumor model, intratumoral injection; tumor growth by caliper/IVIS, survival", "format": "in vivo, Balb/c mice", "conditions": "4T-1 s.c.; for impact on tumor growth: injected intratumorally on day 12, caliper (FIGS. 7, 8)", "text": "Mice. 6-10 week old female Balb/c mice or C57BL/6 animals of both sexes were procured from Baylor College of Medicine or Jackson Laboratories (Bar Harbor, ME). Th-MYCN mice in the 129X1/SvJ background were a kind gift from Dr. William Weiss (UCSF, San Francisco, CA) and were bred in house. All mice were maintained in accordance with the specific IACUC requirements of Baylor College of Medicine and in accordance with animal protocol AN-8375.\nTumor Implantation and Measurements. 500,000 4T-1 TNBC cells (+/−luc2 transduction) were subcutaneously injected onto the hind quarters/back of each mouse and allowed time to reach palpation (approximately 50-100 mm^3) before treatment. For orthotopic 4T-1 experiments, 500,000 4T-1 cells were implanted in the mammary fat pad according to the method of Zhang et al.^34 Following establishment of tumors, experimental cohorts were assembled by means of stratified randomization. Attempts were made to minimize confounding variables such as order of cohort treatment, order of tumor measurement, and cage location by means of simple randomization. Tumors were treated with either the indicated antitumor regimen or vehicle control and measured by IVIS imaging (if applicable) or calculated by caliper measurement. 100,000 MOC-2 HNSCC cells were subcutaneously injected onto the hind quarters/back of each mouse and allowed to become palpable (approximately 50-100 mm^3) before treatment. Tumor size and progression were determined by caliper measurement. Single cell suspensions were generated from Th-MYCN tumors according to the method of Kroesen et al.^12 Suspensions were subcutaneously injected onto the hind quarters/back of each mouse and allowed time to reach palpation (approximately 50-100 mm^3) before treatment. Tumor size and progression were determined by caliper measurement. Tumor volumes were calculated by measuring in two dimensions according to the formula (longest length^2)×shortest length.\nIVIS Imaging. Post tumor implantation, mice were injected with […] of 10 mg/ml D-Luciferin (Regis Technologies, Morton Grove, IL), incubated for 7 min and bio-luminescence was measured with the IVIS imaging system (Caliper Life Sciences, Waltham, MA) following a 60 second exposure. Imaging was performed at 2-4 day intervals.\nAntitumor reagents. For optimization in the TNBC model, all reagents were dissolved in either DMSO or sterile water based on solubility requirements and included Copper(II) diethyldithiocarbamate at 85 μg/50 μl (VWR, Radnor, PA), 2-Cl-IB-MECA at 20 μg/50 μl (Millipore, Burlington, MA), DMXAA at […]/50 μl (R&D Systems, Minneapolis, MN), 5′ppp-dsRNA/Lyovec at 375 ng/50 μl (Invivogen, San Diego, CA), R848 at 15 μg/50 μl (Invivogen), galunisertib at […]/50 μl (Selleckchem, Houston, TX), epcadostat at […]/50 μl (Selleckchem), N^w-Hydroxy-nor-L-arginine at 6 μg/50 μl (Sigma-Aldrich, St. Louis, MO), L-NMMA at 100 ng/50 μl (Abcam, Boston, MA), clodronate at […]/50 μl (Abcam), and 4-1BB ligand at 1 μg/50 μl (NovusBio). Combinatorial treatments were reconstituted as a 10× stock, combined as necessary, and diluted to a 1× concentration with the appropriate diluent. Treatments were intratumorally injected with a 28 gauge needle as a 50 μl bolus. […]\nStatistical Analysis. Significance of differences, unless stated otherwise, was determined by one-way analysis of variance (ANOVA) using Tukey's honestly significant difference (HSD) post hoc test. […]"}, "[2]": {"system": "4T-1 luc-2+ cells", "assay": "Orthotopic 4T-1 TNBC model (mammary fat pad), intratumoral treatment, IVIS", "format": "in vivo, Balb/c mice", "conditions": "4T-1 luc-2+ in mammary fat pad, intratumoral treatment from day 7", "procedure": "Lastly, the boosting regimen was combined together with regimen 16 and performed a dose response analysis at 1×, 0.5×, 0.125×, 0.0625×, and 0.03125× concentrations. […] Similar to the experiment outlined in FIGS. 1C-D, this experiment was performed with the 4T-1 luc2^neg parent cell line to validate that protective immune responses were not dependent upon the presence of xenogeneic luciferase. The treatment model was next validated in the orthotopic setting (Zhang et al., 2019). In this series of experiments, 500,000 4T-1 luc-2^+ cells were implanted under the fourth nipple of the mammary fat pad. […]\nTumor Implantation and Measurements. […] Tumors were treated with either the indicated antitumor regimen or vehicle control and measured by IVIS imaging (if applicable) or calculated by caliper measurement. […] Tumor size and progression were determined by caliper measurement. […] Tumor size and progression were determined by caliper measurement. Tumor volumes were calculated by measuring in two dimensions according to the formula (longest length^2)×shortest length.\nIVIS Imaging. Post tumor implantation, mice were injected with […] of 10 mg/ml D-Luciferin (Regis Technologies, Morton Grove, IL), incubated for 7 min and bio-luminescence was measured with the IVIS imaging system (Caliper Life Sciences, Waltham, MA) following a 60 second exposure. […]"}}, "data": [{"molecule": "O=P(O)(O)C(Cl)(Cl)P(=O)(O)O", "note": "[clodronate]", "values": [{"measurement": "impact on tumor growth", "setting": "[1]", "result": "no beneficial impact on tumor growth"}]}, {"molecule": "4-1BBL: 4-1BB ligand (NovusBio), 4-1BB agonist", "values": [{"measurement": "effect of presence of 4-1BBL on anti-tumor effects of the TLR, STING and RLR agents", "setting": "[1]; FIG. 8", "result": "antagonized the anti-tumor effects"}]}, {"molecule": "Cc1cccc(-c2nn3c(c2-c2ccnc4ccc(C(N)=O)cc24)CCC3)n1", "note": "[galunersitib, galunisertib]", "values": [{"measurement": "tumor growth in the orthotopic setting", "setting": "[2]", "result": "no impact on tumor growth"}]}, {"molecule": "NS(=O)(=O)NCCNc1nonc1C(=NO)Nc1ccc(F)c(Br)c1", "note": "[epacadostat]", "values": [{"measurement": "impact on tumor growth", "setting": "[1]", "result": "no beneficial impact on tumor growth"}]}, {"molecule": "N=C(NO)NCC[C@H](N)C(=O)O", "note": "[No-hydroxy-nor-L-arginine]", "values": [{"measurement": "impact on tumor growth", "setting": "[1]", "result": "no beneficial impact on tumor growth"}]}, {"molecule": "CC(=O)O.CNC(=N)NCCC[C@H](N)C(=O)O", "note": "[L-NMMA, L-NG-monomethyl arginine acetate]", "values": [{"measurement": "impact on tumor growth", "setting": "[1]", "result": "no beneficial impact on tumor growth"}]}]}
